In BindingDB's records for doi:10.1021/jm800503y (University of Queensland, 2008):

Target: T1, Genome polyprotein [1424-1463]/[1502-1685] (West Nile virus, UniProt P06935)
T1 construct: 1424-1463; 1502-1685
T1 sequence (P06935 whole entry) 1: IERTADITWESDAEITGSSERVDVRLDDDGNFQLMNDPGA
T1 sequence (P06935 whole entry) 2: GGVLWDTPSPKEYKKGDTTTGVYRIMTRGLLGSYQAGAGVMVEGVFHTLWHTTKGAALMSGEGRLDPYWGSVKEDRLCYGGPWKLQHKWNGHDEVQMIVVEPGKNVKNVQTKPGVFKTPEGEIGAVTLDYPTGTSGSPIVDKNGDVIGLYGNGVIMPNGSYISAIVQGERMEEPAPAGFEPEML
Assay: In Vitro Enzyme Inhibition
Conditions: pH 9.5; 37 °C
Experimental: Inhibition of WNV protease activity was measured using recombinant WNV protease, which first incubated with inhibitor in 96-well plates. Catalysis was initiated by adding the substrate. Cleavage of the pNA chromophore from substrate produced a color change monitored at 405 nm. Optical density was measured every 30 s for 10 min by a Spectromax 250 reader, and Ki values were determined by Graphpad Prism.

SMILES | IC50 [µM] | Ki [µM]
NCCCC[C@H](NC(=O)C=Cc1ccccc1)C(=O)N[C@@H](CCCCN)C(=O)N[C@H](C=O)CCCN=C(N)N [(2S)-6-amino-2-[(2S)-6-amino-2-[(2E)-3-phenylprop-2-enamido]hexanamido]-N-[(2S)-5-carbamimidamido-1-oxopentan-2-yl]hexanamide] | 0.58 | 0.104
COc1ccc2cc([C@H](C)C(=O)N[C@@H](CCCCN)C(=O)N[C@@H](CCCCN)C(=O)N[C@H](C=O)CCCN=C(N)N)ccc2c1 [(2S)-6-amino-N-[(1S)-5-amino-1-{[(2S)-5-carbamimidamido-1-oxopentan-2-yl]carbamoyl}pentyl]-2-[(2S)-2-(6-methoxynaphthalen-2-yl)propanamido]hexanamide] | 0.112 | 0.02
